Measured values reported in EP0705258B1, “AZOLYL-CYCLIC AMINE DERIVATIVES WITH IMMUNOMODULATORY ACTIVITY” (Knoll AG, priority 1993, dated 1995).

Test system: paw oedema
Assay: Carrageenan-induced rat paw oedema test (Test E)
Format: in vivo, rats
Settings: oral dosing at 100 mg/kg; active = 20% or greater inhibition of paw oedema in at least two out of three tests
Procedure: Female rats, weight range 125-150 g were fasted overnight. One of the hind legs of each animal was marked with a line at the connection between the cuboid/navicular and calcaneus/talus bones. Groups of six rats were orally dosed at 10 ml/kg, in random order, with a given dose of the test compound given as a solution or suspension in 10% (w/v) aqueous acacia solution. One hour after dosing, 0.1 ml of 1% (w/v) sterile carrageenan λ in normal saline was injected deeply into the plantar surface of the marked hind foot of each rat. The volume of the foot (up to the marked line) was measured immediately after injection using duplicate water displacement readings. Three hours after injection the foot volume was measured again and the percentage increase in foot volume relative to the initial reading was calculated. The increase in foot volume (i.e. the degree of oedema) in drug treated animals when compared with that in the drug untreated control gave the degree of inhibition of paw oedema by the drug. […] Statistical significance was assessed using the Student's t test for single dose studies and Dunnett's test for multiple dose studies. More advantageous compounds were active in both Tests D and E.

Structure (SMILES) | deemed to be active in Test E
c1ccc(OCCN2CCC(CCn3ccnc3)CC2)cc1 [Example 87, 4-[2-(Imidazol-1-yl)ethyl]-1-(2-phenoxyethyl)piperidine] | active
CC(c1ccc(Cl)cc1)N1CCC(CCn2ccnc2)CC1 (stereo not drawn) [Example 93, 1-[1-(4-chlorophenyl)ethyl]-4-[2-(imidazol-1-yl)-ethyl]piperidine] | active
Cl.Cl.c1ccc(CCCN2CCC(CCn3ccnc3)CC2)cc1 [Example 98, 4-[2-(imidazol-1-yl)ethyl]-1-(3-phenylpropyl)piperidine dihydrochloride] | active
